Measured values taken from US7771935B2, “Evolving new molecular function” (President and Fellows of Harvard College, priority 2002, dated 2010).

Assays:
[1] = Bromide structural and configurational stability under the reaction conditions (MALDI-TOF, chiral HPLC); type: physicochemical; conditions: 16 hours under the reaction conditions; both enantiomers
[2] = biological target: T1, Taq DNA polymerase (Thermus aquaticus, UniProt P19821); assay: PCR incorporation of modified nucleotide triphosphates by Taq DNA polymerase; type: biochemical; conditions: 30 PCR cycles; pUC19 template; three natural dNTPs
T1 sequence (P19821 whole entry): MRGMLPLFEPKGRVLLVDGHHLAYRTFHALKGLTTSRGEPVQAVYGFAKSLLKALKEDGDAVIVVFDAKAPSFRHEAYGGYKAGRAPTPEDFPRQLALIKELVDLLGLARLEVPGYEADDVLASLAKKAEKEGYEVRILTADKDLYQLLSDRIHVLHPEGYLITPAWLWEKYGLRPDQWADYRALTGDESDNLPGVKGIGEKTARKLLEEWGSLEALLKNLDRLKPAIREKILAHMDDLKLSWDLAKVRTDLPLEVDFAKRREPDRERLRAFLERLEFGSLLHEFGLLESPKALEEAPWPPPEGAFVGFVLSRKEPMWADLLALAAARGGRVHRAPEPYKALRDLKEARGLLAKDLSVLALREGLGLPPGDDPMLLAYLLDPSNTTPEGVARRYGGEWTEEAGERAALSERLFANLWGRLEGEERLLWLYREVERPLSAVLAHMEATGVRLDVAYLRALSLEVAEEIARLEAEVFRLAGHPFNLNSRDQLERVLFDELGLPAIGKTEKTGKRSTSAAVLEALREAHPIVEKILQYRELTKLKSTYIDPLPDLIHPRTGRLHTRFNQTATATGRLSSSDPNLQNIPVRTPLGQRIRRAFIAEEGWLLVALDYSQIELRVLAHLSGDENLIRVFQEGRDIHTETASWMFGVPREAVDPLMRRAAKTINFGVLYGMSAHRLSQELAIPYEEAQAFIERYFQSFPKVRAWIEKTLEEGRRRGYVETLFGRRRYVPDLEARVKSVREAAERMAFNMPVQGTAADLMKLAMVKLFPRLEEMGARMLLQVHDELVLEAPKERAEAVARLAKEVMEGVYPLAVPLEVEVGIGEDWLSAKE
Experimental: The ability of the modified nucleotide triphosphates containing metal-binding functionality shown in FIG. 75 to be accepted by DNA polymerase enzymes was studied. Synthetic nucleotide triphosphates were purified by ion exchange and reverse-phase HPLC and were added to PCR reactions containing Taq DNA polymerase, three natural deoxynucleotide triphosphates, pUC19 template DNA, and two DNA primers. The primers were chosen to generate PCR products ranging from 50 to 200 base pairs in length. Control PCR reactions contained the four natural deoxynucleotide triphosphates and no non-natural nucleotides.

[3] = biological target: Vent DNA polymerase (Thermococcus litoralis, UniProt P30317, DEL1082-1471/DEL495-1032); conditions: PCR conditions; cited from earlier work
Chain of Vent DNA polymerase (P30317 other isoform, or with tags, fused parts or gaps DEL495-1032/DEL1082-1471): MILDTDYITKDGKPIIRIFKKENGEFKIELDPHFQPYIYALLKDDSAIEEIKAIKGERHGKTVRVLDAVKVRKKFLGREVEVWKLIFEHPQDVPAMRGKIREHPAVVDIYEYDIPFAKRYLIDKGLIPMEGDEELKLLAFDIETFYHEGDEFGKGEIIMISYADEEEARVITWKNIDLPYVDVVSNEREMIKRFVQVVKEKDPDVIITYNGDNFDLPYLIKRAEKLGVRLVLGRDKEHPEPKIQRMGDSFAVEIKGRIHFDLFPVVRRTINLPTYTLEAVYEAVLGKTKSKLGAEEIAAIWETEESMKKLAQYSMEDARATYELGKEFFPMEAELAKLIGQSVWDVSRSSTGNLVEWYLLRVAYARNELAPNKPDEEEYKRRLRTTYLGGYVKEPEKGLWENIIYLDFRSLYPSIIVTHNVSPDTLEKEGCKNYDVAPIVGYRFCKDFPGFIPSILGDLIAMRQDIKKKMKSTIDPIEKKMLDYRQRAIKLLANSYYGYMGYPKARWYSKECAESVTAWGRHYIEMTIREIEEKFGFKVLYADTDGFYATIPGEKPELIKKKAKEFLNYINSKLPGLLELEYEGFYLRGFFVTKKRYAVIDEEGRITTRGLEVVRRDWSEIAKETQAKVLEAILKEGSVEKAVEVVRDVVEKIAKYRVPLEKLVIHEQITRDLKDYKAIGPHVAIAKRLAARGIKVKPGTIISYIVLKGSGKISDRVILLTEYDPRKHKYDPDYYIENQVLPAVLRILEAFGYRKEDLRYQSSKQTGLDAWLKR

[4] = biological target: T1, Taq DNA polymerase; conditions: cited from earlier work
[5] = biological target: T2, chymotrypsin (Bos taurus, UniProt P00766, DEL14-15/DEL147-148); conditions: known binding of the free ligand; cited from earlier work
T2 construct: purchased Sigma

[6] = biological target: T3, papain (Carica papaya, UniProt P00784); conditions: known binding of the free ligand; cited from earlier work
T3 construct: purchased Sigma
T3 sequence (P00784 134-345): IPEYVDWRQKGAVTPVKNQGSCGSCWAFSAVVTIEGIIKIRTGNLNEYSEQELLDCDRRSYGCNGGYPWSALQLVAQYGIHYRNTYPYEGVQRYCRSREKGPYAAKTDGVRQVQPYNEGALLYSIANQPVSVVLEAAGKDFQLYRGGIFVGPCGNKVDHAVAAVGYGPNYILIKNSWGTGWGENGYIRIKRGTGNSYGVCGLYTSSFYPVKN

[7] = biological target: glutathione S-transferase (GST); conditions: read-out: Kd of binding to glutathione S-transferase (GST); cited from earlier work

| Structure (SMILES) | incorporation by Taq DNA polymerase [2] | acceptance by Taq DNA polymerase [4] | also measured |
| --- | --- | --- | --- |
| CNC(=O)C(C)Br (racemic) [N-methyl 2-bromopropionamide] |  |  | configurational stability by chiral HPLC [1]: No change in retention time |
| Cc1nc2c(N)ncnc2n1C1CC(O)C(COP(=O)(O)OP(=O)(O)OP(=O)(O)O)O1 (stereo not drawn) [8-modified adenosine triphosphate 32] | not accepted |  |  |
| CCc1nc2c(N)ncnc2n1C1CC(O)C(COP(=O)(O)OP(=O)(O)OP(=O)(O)O)O1 (stereo not drawn) [8-modified adenosine triphosphate 33] | not accepted |  |  |
| CCCC#Cc1cn([C@H]2C[C@H](O)[C@@H](CO)O2)c(=O)[nH]c1=O [analog 1, 5-(1-pentynyl)-deoxyuridine] |  |  | acceptance by Vent DNA polymerase [3]: acceptance |
| NCCCc1cn(C2CC(O)C(CO)O2)c2ncnc(N)c12 (stereo not drawn) [analog 11] |  | acceptance |  |
| NCC=Cc1cn(C2CC(O)C(CO)O2)c2ncnc(N)c12 (stereo not drawn) [analog 12] |  | acceptance |  |
| O=C(O)CCCC[C@@H]1SC[C@@H]2NC(=O)N[C@@H]21 [biotin] |  |  | affinity for chymotrypsin [5]: no significant affinity |
| CC(C)C[C@H](NC(=O)[C@@H](NC(=O)N[C@@H](Cc1ccccc1)C(=O)O)[C@@H]1CCN=C(N)N1)C(=O)N[C@H](C=O)Cc1ccccc1 [chymostatin] |  |  | affinity for papain [6]: binds to both proteases; affinity for chymotrypsin [5]: binds to both proteases |
| NC(=O)CNC(=O)[C@H](CS)NC(=O)CC[C@H](N)C(=O)O [glutathione amide] |  |  | Kd [7]: ~10 µM |
| NCC#Cc1cn([C@H]2C[C@H](O)[C@@H](CO)O2)c2ncnc(N)c12 [uridine analog 13, 7-aminopropynyl-7-deazadeoxyadenosine] | efficiently incorporated | acceptance |  |
